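Dose response: 5 concentrations. Exposure: 48 h. Format: 96-well plates. Endpoint: linear interpolation; highest concentration if not reached. TGI: concentration producing complete growth inhibition.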
Assays:
Assay in all cases: growth of human tumour cells (NCI), 48 h
[1] = system: 786-0 renal
[2] = system: A498 renal
[3] = system: A549 NSCLC
[4] = system: ACHN renal
[5] = system: CCRF-CEM leukemia
[6] = system: COLO 205 colon
[7] = system: DLD-1 colon
[8] = system: DMS 114 small cell lung
[9] = system: DMS 273 small cell lung
[10] = system: EKVX NSCLC
[11] = system: HCT-116 colon
[12] = system: HCT-15 colon
[13] = system: HL-60(TB) leukemia
[14] = system: HOP-18 NSCLC
[15] = system: HOP-62 NSCLC
[16] = system: HOP-92 NSCLC
[17] = system: HT29 colon
[18] = system: IGROV1 ovarian
[19] = system: K-562 leukemia
[20] = system: KM12 colon
[21] = system: KM20L2 colon
[22] = system: LOX IMVI melanoma
[23] = system: LXFL 529 NSCLC
[24] = system: M14 melanoma
[25] = system: M19-MEL melanoma
[26] = system: MALME-3M melanoma
[27] = system: MOLT-4 leukemia
[28] = system: NCI-H23 lung
[29] = system: NCI-H460 lung
[30] = system: NCI-H522 lung
[31] = system: OVCAR-3 ovarian
[32] = system: OVCAR-4 ovarian
[33] = system: OVCAR-5 ovarian
[34] = system: OVCAR-8 ovarian
[35] = system: RPMI-8226 leukemia
[36] = system: SF-268 CNS
[37] = system: SF-295 CNS
[38] = system: SF-539 CNS
[39] = system: SK-MEL-2 melanoma
[40] = system: SK-MEL-28 melanoma
[41] = system: SK-MEL-5 melanoma
[42] = system: SK-OV-3 ovarian
[43] = system: SN12C renal
[44] = system: SNB-19 CNS
[45] = system: SNB-75 CNS
[46] = system: SNB-78 CNS
[47] = system: TK-10 renal
[48] = system: U251 CNS
[49] = system: UACC-257 melanoma
[50] = system: UACC-62 melanoma
[51] = system: UO-31 renal
[52] = system: XF 498 CNS
[53] = system: CAKI-1 renal
[54] = system: HCC-2998 colon
[55] = system: NCI-H226 lung
[56] = system: SW-620 colon
[57] = system: RXF 393 renal
[58] = system: SR leukemia
[59] = system: RXF-631 renal

Measured: TGI

CC1=C(C(=O)O)N2C(=O)[C@@H](NC(=O)C(c3ccc(O)cc3)N3CSC(=S)N(C(C)C)C3)C2SC1 (stereo not given in full)
not listed: [53] | [54] | [55] | [56] | [57] | [58] | [59]
> 100 µM: all other assays above

CC1C=C(OC(=O)c2ccccc2)C(=O)C(n2cc(F)c(=O)[nH]c2=O)O1 (stereo not given)
not listed: [22] | [57] | [58] | [59]
> 100 µM: all other assays above

NNC(=O)/C(=C/c1ccc(Cl)cc1Cl)NC(=O)c1ccccc1
not listed: [21] | [59]
> 100 µM: all other assays above

C[C@H](OCc1ccccc1)C(=O)N1CCS(=O)(=O)N2CCC[C@H]2C1=O
not listed: [9] | [39] | [52]
> 100 µM: all other assays above
